Measured values reported in patent publication US8273754B2, “Substituted 1H-pyrazolo[3,4-D]pyrimidine-6-amine compounds” (ArQule, Inc., priority 2008, dated 2012).
Like-named read-outs stand apart in the source and are kept apart here.

What was measured:
FGFR2 (N549H) = molecular target: T1, FGFR2 (N549H) (Homo sapiens, UniProt P21802, N549H); assay: fluorescent ELISA assay for inhibitors of FGFR2 kinase; assay type: biochemical; settings: Pyk2 peptide substrate, 60 minutes
T1 construct: purchased Millipore 14-742
Procedure: The enzymatic assays described herein are conducted according to the following procedures from commercially available reagents. In one non-limiting example, a fluorescent ELISA assay is used to identify and characterize inhibitors of FGFR2 kinase as described herein. This heterogeneous assay utilizes a biotinylated peptide with a tyrosine motif as a substrate and an anti-phospho-tyrosine antibody to measure phosphorylation of the substrate. The reaction is initiated by adding the test compound, 37 μM Pyk2 substrate (Midwest Biotech, Cat. #MBT2383), 12.5 μM ATP (Roche, Cat. #11 140 965 001) and 0.5 μM FGFR2 enzyme (Millipore, Cat. #14-742) sequentially to a non-binding polypropylene V-well plate. All reagents are in an assay buffer consisting of: 50 mM Tris-HCL, 0.02 mg/ml BSA, 10 mM MgCl2, 0.1 mM Na3VO4, 1 mM EGTA, 75 μM ATP, 0.01% NP-40, 2 mM DTT and 10% glycerol. The reaction is incubated for 60 minutes. As the reaction proceeds, FGFR2 phosphorylates tyrosines in the peptide. The reaction mixture is then moved to a blocked streptavidin-coated Nunc Maxisorb plate (coated with 100 ng streptavidin from Pierce (Cat. #15-124) per well), allowing for the capture of the biotinylated peptide. Peptides are captured for 30 minutes at room temperature, the phosphorylation of peptides continues during this phase. The reaction is stopped by washing the streptavidin-coated plate 6 times with TBST. Phosphorylated peptide is detected by adding anti-phospho-tyrosine antibody (Cell Signaling, Cat. #9411, diluted 1:3000) to the streptavidin-coated plate. Unbound anti-phospho-tyrosine antibody is removed by washing the streptavidin-coated plate 6 times with TBST. Secondary detection is performed using alkaline phosphatase tagged goat anti-mouse antibody (Pierce, Cat. #31320, diluted 1:4000) for one hour. Unbound secondary antibody is removed by washing the streptavidin-coated plate 6 times with TBST. The fluorescent readout is initiated by adding to the streptavidin-coated plate Promega Attophos substrate (Promega, Cat. #S1000, dilution=6 mg/10 ml), which, when dephosphorylated by alkaline phosphatase, emits a fluorescent signal of 595 nm in wavelength when excited by a signal of 400 nm in wavelength. The reading of the 595 nm signal is done on the Perkin Elmer Envision system. Compounds which prevent FGFR2 from phosphorylating the peptide result in a lower fluorescent signal. The 595 nm fluorescent signal is directly proportional to the activity of FGFR2. Thus, the inhibition of FGFR2 by compounds is monitored by the decrease in the 595 nm fluorescent signal.

cancer cells = assay: MTS cell growth inhibition assay (72 hours); assay type: cell-based
Outline: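 Cells in DMEM with 1% FBS, seeded 18 h, then compound-treated 72 h at 37 °C. Viability by MTS/PMS for 4 h, formazan absorbance at 492 nm; IC50 taken as concentration giving 50% absorbance drop, activity banded by percent inhibition.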

[1] = Homo sapiens, DLD-1, 72 h, DLD-1 cells, read-out: DLD-1 MTS 72 hr at 10 μM
[2] = Homo sapiens, KATO III, 72 h, KATO III cells, read-out: KATO III MTS 72 hr at 10 μM
[3] = Homo sapiens, MDA-MB-231, 72 h, MDA-MB-231 cells, read-out: MDA-MB-231 MTS 72 hr at 10 μM
[4] = Homo sapiens, NCI-H1299, 72 h, NCI-H1299 cells, read-out: NCI-H1299 MTS 72 hr at 10 μM
[5] = PaCa-2, 72 h, PACA-2 cells, read-out: PACA-2 MTS 72 hr at 10 μM

T1 sequence (P21802 22-821 N549H): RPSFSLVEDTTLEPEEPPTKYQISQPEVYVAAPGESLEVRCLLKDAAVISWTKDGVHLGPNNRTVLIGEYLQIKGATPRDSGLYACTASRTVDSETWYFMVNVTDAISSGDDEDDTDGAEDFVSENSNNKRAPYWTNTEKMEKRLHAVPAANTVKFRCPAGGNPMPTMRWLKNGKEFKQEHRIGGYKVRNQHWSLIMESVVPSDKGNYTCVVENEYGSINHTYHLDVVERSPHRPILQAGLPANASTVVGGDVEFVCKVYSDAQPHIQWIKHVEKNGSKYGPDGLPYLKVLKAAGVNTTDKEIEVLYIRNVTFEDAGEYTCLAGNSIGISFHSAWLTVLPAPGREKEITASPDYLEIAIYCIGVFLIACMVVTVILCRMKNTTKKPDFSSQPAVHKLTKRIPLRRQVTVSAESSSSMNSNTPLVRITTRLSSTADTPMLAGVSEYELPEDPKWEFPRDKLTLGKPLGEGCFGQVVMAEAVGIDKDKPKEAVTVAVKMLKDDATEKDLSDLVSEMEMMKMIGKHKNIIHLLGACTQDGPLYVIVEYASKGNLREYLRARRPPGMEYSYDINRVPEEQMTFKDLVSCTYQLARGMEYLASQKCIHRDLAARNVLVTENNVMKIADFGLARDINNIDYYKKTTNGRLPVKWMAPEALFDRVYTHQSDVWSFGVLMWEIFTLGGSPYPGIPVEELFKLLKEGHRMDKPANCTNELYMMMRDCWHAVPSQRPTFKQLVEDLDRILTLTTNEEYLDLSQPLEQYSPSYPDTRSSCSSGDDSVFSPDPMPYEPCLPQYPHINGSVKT

SMILES | IC50 (FGFR2 (N549H)) [µM] | inhibition at 10 µM (cancer cells; [1]) [%] | inhibition at 10 µM (cancer cells; [2]) [%] | inhibition at 10 µM (cancer cells; [3]) [%] | inhibition at 10 µM (cancer cells; [4]) [%] | inhibition at 10 µM (cancer cells; [5]) [%]
Nc1nc(NC2Cc3ccccc3N(S(=O)(=O)c3cccc4cccnc34)C2)c2cn[nH]c2n1 (stereo not shown) [Compound 28, N4-(1-(quinolin-8-ylsulfonyl)-1,2,3,4-tetrahydroquinolin-3-yl)-1H-pyrazolo[3,4-d]pyrimidine-4,6-diamine] | 21.5 | < 50 | < 50 | < 50 | < 50 | < 50
CC(=O)Nc1ccc(S(=O)(=O)N2CC(Nc3nc(N)nc4[nH]ncc34)Cc3ccccc32)cc1 (stereo not shown) [Compound 40, N-(4-(3-(6-amino-1H-pyrazolo[3,4-d]pyrimidin-4-ylamino)-3,4-dihydroquinolin-1(2H)-ylsulfonyl)phenyl)acetamide] | > 30 | < 50 | < 50 | < 50 | < 50 | < 50
Nc1nc(NC2Cc3ccccc3N(S(=O)(=O)c3csc4ccccc34)C2)c2cn[nH]c2n1 (stereo not shown) [Compound 51, N4-(1-(benzo[b]thiophen-3-ylsulfonyl)-1,2,3,4-tetrahydroquinolin-3-yl)-1H-pyrazolo[3,4-d]pyrimidine-4,6-diamine] | 3.85 | < 50 | 50 to 79 | < 50 | < 50 | 50 to 79
Nc1nc(NC2Cc3ccccc3N(S(=O)(=O)c3ccc(F)cc3F)C2)c2cn[nH]c2n1 (stereo not shown) [Compound 47, N4-(1-(2,4-difluorophenylsulfonyl)-1,2,3,4-tetrahydroquinolin-3-yl)-1H-pyrazolo[3,4-d]pyrimidine-4,6-diamine] | 0.39 | < 50 | < 50 | < 50 | < 50 | < 50
COc1ccc(S(=O)(=O)N2CC(Nc3nc(N)nc4[nH]ncc34)Cc3ccccc32)cc1 (stereo not shown) [Compound 42, N4-(1-(4-methoxyphenylsulfonyl)-1,2,3,4-tetrahydroquinolin-3-yl)-1H-pyrazolo[3,4-d]pyrimidine-4,6-diamine] | 15.9 | < 50 | 50 to 79 | < 50 | < 50 | < 50
CN(c1nc(N)nc2[nH]ncc12)C1Cc2ccccc2N(Cc2ccc(Cl)c(Cl)c2)C1 (stereo not shown) [Compound 10, N^4-(1-(3,4-dichlorobenzyl)-1,2,3,4-tetrahydroquinolin-3-yl)-N^4-methyl-1H-pyrazolo[3,4-d]pyrimidine-4,6-diamine] | 1.55 | < 50 | 50 to 79 | < 50 | < 50 | < 50
Cc1ccccc1CNC(=O)N1CC(Nc2nc(N)nc3[nH]ncc23)Cc2ccccc21 (stereo not shown) [Compound 111, 3-(6-amino-1H-pyrazolo[3,4-d]pyrimidin-4-ylamino)-N-(2-methylbenzyl)-3,4-dihydroquinoline-1(2H)-carboxamide] | – | < 50 | < 50 | < 50 | < 50 | < 50
Nc1nc(NC2Cc3ccccc3N(C(=O)CCc3ccccc3)C2)c2cn[nH]c2n1 (stereo not shown) [Compound 102, 1-(3-(6-amino-1H-pyrazolo[3,4-d]pyrimidin-4-ylamino)-3,4-dihydroquinolin-1(2H)-yl)-3-phenylpropan-1-one] | – | < 50 | < 50 | < 50 | < 50 | < 50
COC(=O)CCc1ccc(S(=O)(=O)N2CC(Nc3nc(N)nc4[nH]ncc34)Cc3ccccc32)cc1 (stereo not shown) [Compound 73, methyl 3-(4-(3-(6-amino-1H-pyrazolo[3,4-d]pyrimidin-4-ylamino)-3,4-dihydroquinolin-1(2H)-ylsulfonyl)phenyl)propanoate] | – | < 50 | < 50 | < 50 | < 50 | < 50

The next lines start with results.

IC50 (FGFR2 (N549H)) [µM] | SMILES | inhibition at 10 µM (cancer cells; [1]) [%] | inhibition at 10 µM (cancer cells; [2]) [%] | inhibition at 10 µM (cancer cells; [3]) [%] | inhibition at 10 µM (cancer cells; [4]) [%] | inhibition at 10 µM (cancer cells; [5]) [%]
1.19 | Nc1nc(NC2Cc3ccccc3N(Cc3cccc(Cl)c3)C2)c2cn[nH]c2n1 (stereo not shown) [Compound 126, N4-[1-(3-chlorobenzyl)-1,2,3,4-tetrahydroquinolin-3-yl]-1H-pyrazolo[3,4-d]pyrimidine-4,6-diamine] | < 50 | 50 to 79 | < 50 | < 50 | 50 to 79
2.23 | Nc1nc(NC2Cc3ccccc3N(Cc3cccc(F)c3)C2)c2cn[nH]c2n1 (stereo not shown) [Compound 128, N4-[1-(3-fluorobenzyl)-1,2,3,4-tetrahydroquinolin-3-yl]-1H-pyrazolo[3,4-d]pyrimidine-4,6-diamine] | < 50 | 50 to 79 | < 50 | < 50 | 50 to 79
> 30 | CC(C)(C)c1ccc(CN2CC(Nc3nc(N)nc4[nH]ncc34)Cc3ccccc32)cc1 (stereo not shown) [Compound 131, N4-[1-(4-tert-butylbenzyl)-1,2,3,4-tetrahydroquinolin-3-yl]-1H-pyrazolo[3,4-d]pyrimidine-4,6-diamine] | < 50 | < 50 | < 50 | < 50 | < 50
22.3 | COc1ccccc1CN1CC(Nc2nc(N)nc3[nH]ncc23)Cc2ccccc21 (stereo not shown) [Compound 132, N4-[1-(2-methoxybenzyl)-1,2,3,4-tetrahydroquinolin-3-yl]-1H-pyrazolo[3,4-d]pyrimidine-4,6-diamine] | < 50 | < 50 | < 50 | < 50 | < 50
0.41 | Nc1nc(NC2Cc3ccccc3N(S(=O)(=O)c3ccc(F)cc3Cl)C2)c2cn[nH]c2n1 (stereo not shown) [Compound 53, N4-(1-(2-chloro-4-fluorophenylsulfonyl)-1,2,3,4-tetrahydroquinolin-3-yl)-1H-pyrazolo[3,4-d]pyrimidine-4,6-diamine] | < 50 | < 50 | < 50 | < 50 | < 50
17.2 | Nc1nc(NC2Cc3ccccc3N(Cc3ccccc3)C2)c2cn[nH]c2n1 (stereo not shown) [Compound 125, N4-(1-benzyl-1,2,3,4-tetrahydroquinolin-3-yl)-1H-pyrazolo[3,4-d]pyrimidine-4,6-diamine] | < 50 | < 50 | < 50 | < 50 | < 50
> 30 | COc1ccc(CN2CC(Nc3nc(N)nc4[nH]ncc34)Cc3ccccc32)cc1OC (stereo not shown) [Compound 123, N4-[1-(3,4-dimethoxybenzyl)-1,2,3,4-tetrahydroquinolin-3-yl]-1H-pyrazolo[3,4-d]pyrimidine-4,6-diamine] | < 50 | < 50 | < 50 | < 50 | < 50
1.33 | Nc1nc(NC2Cc3ccccc3N(Cc3ccc(F)c(F)c3)C2)c2cn[nH]c2n1 (stereo not shown) [Compound 124, N4-[1-(3,4-difluorobenzyl)-1,2,3,4-tetrahydroquinolin-3-yl]-1H-pyrazolo[3,4-d]pyrimidine-4,6-diamine] | – | – | – | – | –
